Data as given in US20210015098A1, “MOLECULES HAVING PESTICIDAL UTILITY, AND INTERMEDIATES, COMPOSITIONS, AND PROCESSES, RELATED THERETO” (DOW AGROSCIENCES LLC, priority 2018, published 2021).

Key:
Type in all cases: in vivo
[1] = tested on: Cabbage Looper (Trichoplusia ni, TRIPNI); experiment: Bioassays on Cabbage Looper (CL), 128-well diet tray assay; settings: for mortality at 50 µg/cm2: 168 h, 50 μg/cm^2 on artificial diet, second instar larvae, 25° C., five to seven days, read-out: CL % Control (or Mortality) rating; for pest or weed control at 50 µg/cm2: Cabbage Looper, Table ABC Biological Results, read-out: CL (rating)
Method: (§1) Certain molecules disclosed in this document were tested against BAW and CL using procedures described in the following examples. In the reporting of the results, the “BAW & CL Rating Table” was used (See Table Section).
Bioassays on CL were conducted using a 128-well diet tray assay. One to five second instar CL larvae were placed in each well (3 mL) of the diet tray that had been previously filled with 1 mL of artificial diet to which 50 μg/cm^2 of the test molecule (dissolved in 50 μL of 90:10 acetone-water mixture) had been applied (to each of eight wells) and then allowed to dry. Trays were covered with a clear self-adhesive cover, vented to allow gas exchange, and held at 25° C., 14:10 light-dark for five to seven days. Percent mortality was recorded for the larvae in each well; activity in the eight wells was then averaged. The results are indicated in the table entitled “Table ABC: Biological Results” (See Table Section).

[2] = tested on: Beet Armyworm (Spodoptera exigua, LAPHEG); experiment: Bioassays on Beet Armyworm (BAW), 128-well diet tray assay; settings: for mortality at 50 µg/cm2: 168 h, 50 μg/cm^2 on artificial diet, second instar larvae, 25° C., five to seven days, read-out: BAW % Control (or Mortality) rating; for pest or weed control at 50 µg/cm2: Beet Armyworm, Table ABC Biological Results, read-out: BAW (rating)
Method: as §1
Bioassays on BAW were conducted using a 128-well diet tray assay. One to five second instar BAW larvae were placed in each well (3 mL) of the diet tray that had been previously filled with 1 mL of artificial diet to which 50 μg/cm^2 of the test molecule (dissolved in 50 μL of 90:10 acetone-water mixture) had been applied (to each of eight wells) and then allowed to dry. Trays were covered with a clear self-adhesive cover, vented to allow gas exchange, and held at 25° C., 14:10 light-dark for five to seven days. Percent mortality was recorded for the larvae in each well; activity in the eight wells was then averaged. The results are indicated in the table entitled “Table ABC: Biological Results” (See Table Section).

[3] = tested on: Yellow Fever Mosquito (Aedes aegypti, AEDSAE); settings: for YFM % Control (or Mortality) rating: about 1 day-old larvae, 96-well plate, room temperature, 3 days; for YFM (rating): Yellow Fever Mosquito, Table ABC Biological Results
Method: Certain molecules disclosed in this document were tested against YFM using procedures described in the following paragraph. In the reporting of the results, the “GPA & YFM Rating Table” was used (See Table Section).
Master plates containing 400 μg of a molecule dissolved in 100 μL of dimethyl sulfoxide (DMSO) (equivalent to a 4000 ppm solution) are used. A master plate of assembled molecules contains 15 μL per well. To this plate, 135 μL of a 90:10 water/acetone mixture is added to each well. A robot (Biomek® NXP Laboratory Automation Workstation) is programmed to dispense 15 μL aspirations from the master plate into an empty 96-well shallow plate (“daughter” plate). There are 6 reps (“daughter” plates) created per master. The created “daughter” plates are then immediately infested with YFM larvae.
The day before plates are to be treated, mosquito eggs are placed in Millipore water containing liver powder to begin hatching (4 g into 400 mL). After the “daughter” plates are created using the robot, they are infested with 220 μL of the liver powder/larval mosquito mixture (about 1 day-old larvae). After plates are infested with mosquito larvae, a non-evaporative lid is used to cover the plate to reduce drying. Plates are held at room temperature for 3 days prior to grading. After 3 days, each well is observed and scored based on mortality. The results are indicated in the table entitled “Table ABC: Biological Results” (See Table Section).

Row | Structure (SMILES) | mortality at 50 µg/cm2 [1] [%] | mortality at 50 µg/cm2 [2] [%] | YFM % Control (or Mortality) rating [3] | pest or weed control at 50 µg/cm2 [1] [%] | pest or weed control at 50 µg/cm2 [2] [%] | YFM (rating) [3]
1 | Nc1c(F)ccc(NC(=O)c2cc(NC(=O)[C@H]3[C@H](c4cc(C(F)(F)F)cc(C(F)(F)F)c4)C3(Cl)Cl)ccc2Cl)c1F (relative stereo) [DP7, trans-N-(3-Amino-2,4-difluorophenyl)-5-(3-(3,5-bis(trifluoromethyl)phenyl)-2,2-dichlorocyclopropane-1-carboxamido)-2-chlorobenzamide] | 50 to 100 | 50 to 100 | A (80-100) |  |  | 
2 | CC(C)(C)OC(=O)N(C(=O)OC(C)(C)C)c1c(F)ccc(NC(=O)c2cc(NC(=O)[C@H]3[C@H](c4cc(Cl)c(Cl)c(Cl)c4)C3(Cl)Cl)ccc2Cl)c1F [DP1, tert-butyl-N-((tert-butoxy)carbonyl)-N-(3-(2-chloro-5-((1R,3R)-2,2-dichloro-3-(3,4,5-trichlorophenyl)cyclopropane-1-carboxamido)benzamido)-2,6-difluorophenyl)carbamate] | 0 | 0 to 50 | D (No activity noticed in this bioassay) |  |  | 
3 | Nc1c(F)ccc(NC(=O)c2cc(NC(=O)[C@H]3[C@H](c4cc(Cl)c(Cl)c(Cl)c4)C3(Cl)Cl)ccc2Cl)c1F [DP2, N-(3-amino-2,4-difluorophenyl)-2-chloro-5-((1R,3R)-2,2-dichloro-3-(3,4,5-trichlorophenyl)cyclopropane-1-carboxamido)benzamide] | 50 to 100 | 50 to 100 | A (80-100) |  |  | 
4 | Nc1c(F)ccc(NC(=O)c2cc(NC(=O)[C@H]3[C@H](c4ccc(Cl)c(Cl)c4)C3(Cl)Cl)ccc2Cl)c1F [DP3, N-(3-Amino-2,4-difluorophenyl)-2-chloro-5-((1R,3R)-2,2-dichloro-3-(3,4-dichlorophenyl)cyclopropane-1-carboxamido)benzamide] | 50 to 100 | 50 to 100 | A (80-100) |  |  | 
5 | Nc1c(F)ccc(NC(=O)c2cc(NC(=O)[C@H]3[C@H](c4ccc(F)c(Cl)c4)C3(Cl)Cl)ccc2Cl)c1F [DP4, N-(3-Amino-2,4-difluorophenyl)-2-chloro-5-((1R,3R)-2,2-dichloro-3-(3-chloro-4-fluorophenyl)cyclopropane-1-carboxamido)benzamide] | 50 to 100 | 50 to 100 | A (80-100) |  |  | 
6 | Nc1c(F)ccc(NC(=O)c2cc(NC(=O)[C@H]3[C@H](c4ccc(F)c(C(F)(F)F)c4)C3(Cl)Cl)ccc2Cl)c1F [DP5, N-(3-Amino-2,4-difluorophenyl)-2-chloro-5-((1R,3R)-2,2-dichloro-3-(4-fluoro-3-(trifluoromethyl)phenyl)cyclopropanecarboxamido)benzamide] | 50 to 100 | 50 to 100 | A (80-100) |  |  | 
7 | Nc1c(F)ccc(NC(=O)c2cc(NC(=O)[C@H]3[C@H](c4cc(F)cc(C(F)(F)F)c4)C3(Cl)Cl)ccc2Cl)c1F [DP8, N-(3-Amino-2,4-difluorophenyl)-2-chloro-5-((1R,3R)-2,2-dichloro-3-(3-fluoro-5-(trifluoromethyl)phenyl)cyclopropane-1-carboxamido)benzamide] | 50 to 100 | 50 to 100 | A (80-100) |  |  | 
8 | O=C(CSCC(F)(F)F)Nc1c(F)ccc(NC(=O)c2cc(NC(=O)[C@H]3[C@H](c4ccc(F)c(C(F)(F)F)c4)C3(Cl)Cl)ccc2Cl)c1F [F15, 2-chloro-5-((R,3R)-2,2-dichloro-3-(4-fluoro-3-(trifluoromethyl)phenyl)cyclopropane-1-carboxamido)-N-(2,4-difluoro-3-(2-((2,2,2-trifluoroethyl)thio)acetamido)phenyl)benzamide] |  |  |  | 50 to 100 | 50 to 100 | A (80-100)
9 | CC(SC(F)(F)F)C(=O)Nc1c(F)ccc(NC(=O)c2cc(NC(=O)[C@H]3[C@H](c4ccc(F)c(C(F)(F)F)c4)C3(Cl)Cl)ccc2Cl)c1F (stereo partly drawn) [F16, 2-Chloro-5-((1R,3R)-2,2-dichloro-3-(4-fluoro-3-(trifluoromethyl)phenyl)cyclopropane-1-carboxamido)-N-(2,4-difluoro-3-(2-((trifluoromethyl)thio)propanamido)phenyl)benzamide] |  |  |  | 50 to 100 | 50 to 100 | A (80-100)
10 | O=C(CSC(F)(F)F)Nc1c(F)ccc(NC(=O)c2cc(NC(=O)[C@H]3[C@H](c4ccc(F)c(C(F)(F)F)c4)C3(Cl)Cl)ccc2Cl)c1F [F17, 2-Chloro-5-((1R,3R)-2,2-dichloro-3-(4-fluoro-3-(trifluoromethyl)phenyl)cyclopropane-1-carboxamido)-N-(2,4-difluoro-3-(2-((trifluoromethyl)thio)acetamido)phenyl)benzamide] |  |  |  | 50 to 100 | 50 to 100 | A (80-100)
11 | CCSC(C)C(=O)Nc1c(F)ccc(NC(=O)c2cc(NC(=O)[C@H]3[C@H](c4ccc(F)c(C(F)(F)F)c4)C3(Cl)Cl)ccc2Cl)c1F (stereo partly drawn) [F18, 2-Chloro-5-((1R,3R)-2,2-dichloro-3-(4-fluoro-3-(trifluoromethyl)phenyl)cyclopropane-1-carboxamido)-N-(3-(2-(ethylthio)propanamido)-2,4-difluorophenyl)benzamide] |  |  |  | 50 to 100 | 50 to 100 | A (80-100)
12 | O=C(CSC(F)(F)F)Nc1c(F)ccc(NC(=O)c2cc(NC(=O)[C@H]3[C@H](c4cccc(C(F)(F)F)c4)C3(Cl)Cl)ccc2Cl)c1F [F47, 2-Chloro-5-((1R,3R)-2,2-dichloro-3-(3-(trifluoromethyl)phenyl)cyclopropane-1-carboxamido)-N-(2,4-difluoro-3-(2-((trifluoromethyl)thio)acetamido)phenyl)benzamide] |  |  |  | 50 to 100 | 50 to 100 | 
13 | O=C(CSC(F)(F)F)Nc1c(F)ccc(NC(=O)c2cc(NC(=O)[C@H]3[C@H](c4cc(F)cc(C(F)(F)F)c4)C3(Cl)Cl)ccc2Cl)c1F [F49, 2-Chloro-5-((1R,3R)-2,2-dichloro-3-(3-fluoro-5-(trifluoromethyl)phenyl)cyclopropane-1-carboxamido)-N-(2,4-difluoro-3-(2-((trifluoromethyl)thio)acetamido)phenyl)benzamide] |  |  |  | 50 to 100 | 50 to 100 | 
14 | CSCC(=O)Nc1ccc(NC(=O)c2cc(NC(=O)[C@H]3[C@H](c4ccc(F)c(C(F)(F)F)c4)C3(Cl)Cl)ccc2Cl)c(F)c1 [F50, 2-Chloro-5-((1R,3R)-2,2-dichloro-3-(4-fluoro-3-(trifluoromethyl)phenyl)cyclopropane-1-carboxamido)-N-(2-fluoro-4-(2-(methylthio)acetamido)phenyl)benzamide] |  |  |  | 50 to 100 | 50 to 100 | 
15 | O=C(CSC(F)(F)F)Nc1ccc(NC(=O)c2cc(NC(=O)[C@H]3[C@H](c4ccc(F)c(C(F)(F)F)c4)C3(Cl)Cl)ccc2Cl)c(F)c1 [F51, 2-Chloro-5-((1R,3R)-2,2-dichloro-3-(4-fluoro-3-(trifluoromethyl)phenyl)cyclopropane-1-carboxamido)-N-(2-fluoro-4-(2-((trifluoromethyl)thio)acetamido)phenyl)benzamide] |  |  |  | 50 to 100 | 50 to 100 | 
16 | O=C(CSCC(F)(F)F)Nc1ccc(NC(=O)c2cc(NC(=O)[C@H]3[C@H](c4ccc(F)c(C(F)(F)F)c4)C3(Cl)Cl)ccc2Cl)c(F)c1 [F52, 2-Chloro-5-((1R,3R)-2,2-dichloro-3-(4-fluoro-3-(trifluoromethyl)phenyl)cyclopropane-1-carboxamido)-N-(2-fluoro-4-(2-((2,2,2-trifluoroethyl)thio)acetamido)phenyl)benzamide] |  |  |  | 50 to 100 | 50 to 100 | 
